Measured values taken from patent publication US10150737B2, “Compounds for controlling arthropods” (priority 2013, dated 2018).

Experiments:
Ctenocephalides felis [1] = experiment: Ctenocephalides felis - oral test; type: in vivo; details: application rate 100 ppm in citrated cattle blood; after 2 days
Summary of the method: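 Compound in DMSO diluted into citrated cattle blood, fed through a parafilm membrane to about 20 unfed adult cat fleas. Kill in % scored after 2 days (100% = all dead).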

Amblyomma hebraeum = experiment: Amblyomma hebaraeum test (tick nymphs, immersion); type: in vivo; details: application rate 100 ppm; tick nymphs immersed one minute; after 42 days
Experimental: Solvent: dimethyl sulphoxide
To produce an appropriate active ingredient formulation, 10 mg of active ingredient are mixed with 0.5 ml of dimethyl sulphoxide, and the concentrate is diluted with water to the desired concentration.
Tick nymphs (Amblyomma hebraeum) are placed into perforated plastic beakers and immersed in the desired concentration for one minute. The ticks are transferred on filter paper into a Petri dish and stored in a climate-controlled cabinet.
After 42 days, the kill in % is determined. 100% means that all of the ticks have been killed; 0% means that none of the ticks have been killed.

Lucilia cuprina = Lucilia cuprina test; type: in vivo; details: application rate 100 ppm; L1 larvae; after 2 days
Summary of the method: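 About 20 L1 larvae placed on minced horsemeat treated with compound, formulated in DMSO and diluted with water to test concentration. Kill in % scored after 2 days (100% = all larvae dead, 0% = none).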

[2] = test system: Boophilus microplus Parkhurst strain, SP-resistant; experiment: Boophilus microplus - dip test; type: in vivo; details: application rate 100 ppm; dip of engorged adult female ticks; after 7 days
Summary of the method: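 SP-resistant Parkhurst strain engorged adult female Boophilus microplus (8-10 per tube) dipped in DMSO-based compound dilutions in water, then kept in a climate-controlled room. Efficacy scored after 7 days from fertile egg laying, with larval hatch checked after about 42 days; 100% means no fertile eggs.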

Spodoptera frugiperda = Spodoptera frugiperda - spray test; type: in vivo; details: caterpillars on maize leaf discs, after 7 days
Summary of the method: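 Maize leaf discs sprayed with compound formulated in acetone/DMF and diluted in water containing 1000 ppm alkylaryl polyglycol ether emulsifier, then infested with armyworm caterpillars after drying. Efficacy scored after 7 days as % caterpillars killed (100% all, 0% none).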

Boophilus microplus = Boophilus microplus - injection test; type: in vivo; details: application rate 20 μg/animal, injection into engorged adult female ticks, after 7 days
Summary of the method: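 Active ingredient in DMSO, 1 μl injected into the abdomen of 5 engorged adult female ticks, then held in a climate-controlled room. Efficacy scored after 7 days from laying of fertile eggs, with non-fertile-looking eggs kept about 42 days for larval hatch; 100% means no fertile eggs.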

[3] = logP determination by HPLC on a reversed-phase column (C18); type: physicochemical; details: for logP^a): HPLC-MS method a); for log P: HPLC-MS
Phaedon cochleariae = Phaedon cochleariae - spray test; type: in vivo; details: larvae on Chinese cabbage leaf discs, after 7 days
Summary of the method: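 Chinese cabbage leaf discs sprayed with compound formulated in acetone/DMF and water containing 1000 ppm emulsifier; once dry, infested with mustard beetle larvae. Efficacy (% larvae killed) scored after 7 days.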

Ctenocephalides felis [4] = experiment: Ctenocephalides felis - in vitro contact tests with adult cat fleas; type: in vivo; details: application rate 5 μg/cm2 (=500 g/ha); after 48 h; fleas dead or moribund
Summary of the method: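 Tubes coated with compound in acetone (250 μl of 900 ppm solution gives 5 μg/cm^2 on 44.7 cm^2), solvent evaporated, then 5–10 adult fleas added and kept horizontal at room temperature and ambient humidity. After 48 h, dead or moribund (motionless/uncoordinated) fleas scored as % efficacy.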

Musca domestica = Musca domestica test; type: in vivo; details: application rate 100 ppm; adult houseflies; after 2 days
Summary of the method: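 Feeding exposure: adult Musca domestica, 10 per vessel, given a sponge with sugar solution and test formulation at the desired concentration; % mortality determined on day 2.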

Myzus persicae = Myzus persicae - spray test; type: in vivo; details: Chinese cabbage leaf discs, after 6 days
Summary of the method: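 Chinese cabbage leaf discs carrying all stages of Myzus persicae sprayed with compound in acetone/DMF diluted in water with 1000 ppm emulsifier. Efficacy (% aphids killed) assessed after 6 days.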

Tetranychus urticae = Tetranychus urticae - spray test, OP-resistant; type: in vivo; details: bean leaf discs, after 6 days
Summary of the method: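 Compound dissolved in acetone/DMF, diluted with water containing 1000 ppm alkylaryl polyglycol ether emulsifier to test concentrations. Bean leaf discs infested with all stages of spider mites were sprayed; % kill determined after 6 days (100% = all mites dead, 0% = none).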

Rhipicephalus sanguineus = Rhipicephalus sanguineus - in vitro contact tests with adult brown dog ticks; type: in vivo; details: application rate 5 μg/cm2; after 48 h; ticks dead or moribund
Summary of the method: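 Test tubes coated with active ingredient in acetone, 5 μg/cm^2 at 900 ppm. 5-10 adult ticks per tube, kept dark at room temperature for 48 h. Ticks then heated at 45-50° C ≤5 min; motionless or uncoordinated ticks scored dead/moribund, efficacy as % dead or moribund.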

[5] = reversed-phase column (C18), Table I-T3

Structure (SMILES)	efficacy (kill) (Ctenocephalides felis [1])	efficacy (kill) (Amblyomma hebraeum)	efficacy (kill) (Lucilia cuprina)	efficacy (laying of fertile eggs) [2]	efficacy (Spodoptera frugiperda; application rate 100 g/ha)	efficacy (laying of fertile eggs) (Boophilus microplus)	logP^a) [3]	logP^a) [3, 5]	efficacy (Phaedon cochleariae; application rate 100 g/ha)	efficacy (Ctenocephalides felis [4])	efficacy (kill) (Musca domestica)	efficacy (Myzus persicae; application rate 100 g/ha)	efficacy (Tetranychus urticae; application rate 100 g/ha)	efficacy (Rhipicephalus sanguineus)	efficacy (Spodoptera frugiperda; application rate 500 g/ha)	efficacy (Phaedon cochleariae; application rate 500 g/ha)	efficacy (Myzus persicae; application rate 500 g/ha)	efficacy (Tetranychus urticae; application rate 500 g/ha)	further results
Cc1cc(C(F)(C(F)(F)F)C(F)(F)F)cc(C)c1-n1cc(-c2ccc(Cl)c(C(=O)NC3(C#N)CC3)c2)cn1 [I-T3-3]	100%	100%	100%	100%	100%	100%	4.2	4.2	100%	100%	100%	100%	100%	100%	–	–	–	–	–
Cc1cc(C(F)(C(F)(F)F)C(F)(F)F)cc(C)c1-n1cc(-c2cnc(Cl)c(C(=O)NC3CC3)c2)cn1 [I-T3-20]	100%	100%	100%	100%	–	100%	3.8	3.8	–	100%	100%	–	–	100%	100%	100%	100%	100%	–
Cc1cc(C(F)(C(F)(F)F)C(F)(F)F)cc(C)c1-n1cc(-c2cnc(Cl)c(C(=O)NC3(C#N)CC3)c2)cn1 [I-T3-21]	100%	100%	100%	100%	–	100%	3.7	3.7	–	100%	100%	–	–	100%	100%	100%	90%	100%	–
O=C(NC1CC1)c1cc(-c2cnn(-c3c(Cl)cc(C(F)(C(F)(F)F)C(F)(F)F)cc3Cl)c2)cnc1Cl [I-T3-42]	100%	100%	100%	100%	–	100%	3.8	3.8	–	100%	100%	–	–	100%	100%	100%	90%	100%	–
N#CC1(NC(=O)c2cc(-c3cnn(-c4c(Cl)cc(C(F)(C(F)(F)F)C(F)(F)F)cc4Cl)c3)cnc2Cl)CC1 [I-T3-43]	100%	100%	100%	100%	–	100%	3.8	3.8	–	100%	100%	–	–	80%	100%	100%	100%	100%	–
CCc1cc(C(F)(C(F)(F)F)C(F)(F)F)cc(C)c1-n1cc(-c2ccc(Cl)c(C(=O)NC3CC3)c2)cn1 [I-T3-44]	100%	100%	100%	100%	–	100%	4.7	4.7	–	100%	–	–	–	100%	100%	100%	100%	100%	–
N#CC1(NC(=O)c2cc(-c3cnn(-c4ccc(C(F)(C(F)(F)F)C(F)(F)F)cc4C(F)(F)F)c3)ccc2Cl)CC1 [I-T3-53]	100%	80%	100%	100%	100%	100%	4.3	4.3	100%	–	100%	90%	100%	100%	–	–	–	–	–
Cc1cc(C(F)(C(F)(F)F)C(F)(F)F)cc(C(F)(F)F)c1-n1cc(-c2ccc(Cl)c(C(=O)NC3CC3)c2)cn1 [I-T3-54]	100%	100%	100%	100%	100%	100%	4.4	4.4	100%	100%	100%	100%	100%	100%	–	–	–	–	–
CCc1cc(C(F)(C(F)(F)F)C(F)(F)F)cc(Cl)c1-n1cc(-c2ccc(Cl)c(C(=O)NC3(C#N)CC3)c2)cn1 [I-T3-71]	100%	100%	100%	100%	100%	100%	4.5	4.5	100%	100%	100%	–	90%	100%	–	–	–	–	–
O=C(NC1CC1)c1cc(-c2cnn(-c3c(Br)cc(C(F)(C(F)(F)F)C(F)(F)F)cc3C(F)(F)F)c2)ccc1Cl [I-T3-148]	100%	100%	100%	100%	100%	100%	–	–	100%	100%	100%	–	90%	100%	–	–	–	–	logP^a) ([3]; reversed-phase column (C18)): 4.5; log P [3, 5]: 4.5
N#CC1(NC(=O)c2cc(-c3cnn(-c4c(Br)cc(C(F)(C(F)(F)F)C(F)(F)F)cc4C(F)(F)F)c3)ccc2Cl)CC1 [I-T3-155]	100%	100%	100%	100%	100%	100%	–	–	100%	100%	100%	–	100%	100%	–	–	–	–	logP^a) ([3]; reversed-phase column (C18)): 4.4; log P [3, 5]: 4.4
Cc1cc(C(F)(C(F)(F)F)C(F)(F)F)cc(C)c1-c1cnn(-c2cnc(Cl)c(C(=O)NC3CC3)c2)c1 [I-T4-3, 2-chloro-N-cyclopropyl-5-[4-[2,6-dimethyl-4-[1,2,2,2-tetrafluoro-1-(trifluoromethyl)ethyl]phenyl]pyrazol-1-yl]pyridine-3-carboxamide]	–	100%	–	100%	–	–	–	–	–	100%	–	90%	–	100%	–	–	–	–	pest or weed control at 0.02 mg (Boophilus microplus; Rhipicephalus microplus, 168 h, read-out: efficacy (laying of fertile eggs)): 100%; logP ([3]; HPLC, C18 reversed phase, acetonitrile/water with formic acid, EEC Directive 79/831 Annex V.A8): 4.4
